The assay addresses T1, glucocorticoid receptor (Homo sapiens, UniProt P04150).
T1 construct: host or cells: A549 human lung epithelial cells (sonicated cell extract)
T1 sequence (P04150 1-777): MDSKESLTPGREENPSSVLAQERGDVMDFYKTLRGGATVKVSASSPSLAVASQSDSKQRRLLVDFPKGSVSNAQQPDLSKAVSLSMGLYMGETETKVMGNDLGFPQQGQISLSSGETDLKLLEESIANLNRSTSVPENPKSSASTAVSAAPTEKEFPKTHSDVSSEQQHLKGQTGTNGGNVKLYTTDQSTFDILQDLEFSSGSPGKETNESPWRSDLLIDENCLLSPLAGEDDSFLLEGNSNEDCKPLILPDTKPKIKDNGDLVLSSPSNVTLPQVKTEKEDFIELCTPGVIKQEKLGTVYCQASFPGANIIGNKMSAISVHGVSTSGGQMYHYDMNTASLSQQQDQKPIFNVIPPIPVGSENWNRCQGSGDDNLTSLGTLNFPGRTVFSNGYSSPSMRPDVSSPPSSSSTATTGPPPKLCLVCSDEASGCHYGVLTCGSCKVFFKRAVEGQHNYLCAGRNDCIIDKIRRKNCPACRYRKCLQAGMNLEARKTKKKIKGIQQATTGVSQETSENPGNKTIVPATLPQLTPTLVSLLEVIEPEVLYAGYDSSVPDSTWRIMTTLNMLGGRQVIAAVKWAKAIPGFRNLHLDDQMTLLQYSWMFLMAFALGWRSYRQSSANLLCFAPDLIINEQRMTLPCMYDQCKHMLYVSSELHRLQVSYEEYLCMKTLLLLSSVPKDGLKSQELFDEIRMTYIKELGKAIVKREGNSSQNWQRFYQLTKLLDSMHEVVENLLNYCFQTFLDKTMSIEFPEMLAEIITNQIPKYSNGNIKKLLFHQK
Kind of assay: Glucocorticoid Receptor Binding Assay ([3H]-dexamethasone displacement, A549 cell extract). As to conditions: A549 human lung epithelial cell extract, 1.86 nM [3H]-dexamethasone; read-out: GR Ki. The method, boiled down:
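A549 cell extract (50-200 ug; buffer 50 mM Tris-HCl pH 7.2 with glycerol, NaCl, MgCl2, EDTA, 10 mM molybdate) incubated with 1.86 nM [3H]-dexamethasone and test compound, 16 h at 4 °C. Unbound ligand removed with dextran-coated charcoal; bound radioactivity counted. IC50 converted to Ki via Cheng-Prusoff.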

In patent US7250442B2, “Dihydroindol-2-one derivatives as steroid hormone nuclear receptor modulators” (Eli Lilly and Company, priority 2003, dated 2007) one finds Ki data, which are given here for one compound.

In general, Ki refers to a dissociation constant, usually derived from enzyme kinetics or from competition with a known ligand. Take `Cc1cc(C2(c3cc(C)c(O)c(C)c3)C(=O)N(c3cccc(Br)c3)c3ccccc32)cc(C)c1O` [Example 139, 1-(3-Bromo-phenyl)-3,3-bis-(4-hydroxy-3,5-dimethyl-phenyl)-1,3-dihydro-indol-2-one]: the Ki is at most 500 nM.
